Reference: US11214772B2, “Production method for retinal tissue” (SUMITOMO DAINIPPON PHARMA CO., LTD., priority 2014, dated 2022)

What was measured:
Format in all cases: cell-based
[1] = system: human iPS cells (201B7 strain); assay: Bright field observation of cell aggregates in suspension culture (neuroepithelium formation); conditions: day 18
Description: The thus-prepared subconfluent human iPS cells were treated with the cell dispersion solution by using TrypLE Select (manufactured by Life Technologies), further dispersed into single cells by pipetting operation, and the above human iPS cells dispersed into single cells were suspended in 100 μl of a serum-free medium at 1.2×10^4 cells per well of a non-cell-adhesive 96-well culture plate (PrimeSurface 96V-bottom plate, SUMITOMO BAKELITE). Thereafter, the cells were subjected to suspension culturing at 37° C., 5% CO2. As the serum-free medium (gfCDM+KSR) therefor, a serum-free medium which is a 1:1 mixture of F-12 medium and IMDM medium supplemented with 10% KSR, 450 μM 1-monothioglycerol, 1× Chemically defined lipid concentrate was used. At the time of the start of suspension culturing (day 0 after the start of suspension culturing, start of step 2), a serum-free medium supplemented with SAG (final concentration […]) as a Shh signal transduction pathway activating substance and Y27632 (20 μM) was used (FIG. 5A-D). By day 2 after the start of suspension culturing, cell aggregates were formed. On day 3 after the start of suspension culturing, a serum-free medium (50 μl) free of Y27632 and SAG was added. […] The thus-prepared cell aggregates were subjected to bright field observation under an inverted microscope (BIOREVO manufactured by KEYENCE) on day 18 after the start of suspension culturing.
(§1) The thus-prepared subconfluent human iPS cells were treated with the cell dispersion solution by using TrypLE Select (manufactured by Life Technologies), further dispersed into single cells by pipetting operation, and the above human iPS cells dispersed into single cells were suspended in 100 μl of a serum-free medium at 1.0×10^4 cells per well of a non-cell-adhesive 96-well culture plate (SUMILON SPHEROID V-bottom plate PrimeSurface 96V-bottom plate, SUMITOMO BAKELITE). Thereafter, the cells were subjected to suspension culturing at 37° C., 5% CO2. As the serum-free medium (gfCDM+KSR) therefor, a serum-free medium which is a 1:1 mixture of F-12 medium and IMDM medium supplemented with 10% KSR, 450 μM 1-monothioglycerol, 1× Chemically defined lipid concentrate was used. At the time of the start of suspension culturing (day 0 after the start of suspension culturing, start of step 2), the above serum-free medium supplemented with Y27632 (final concentration 20 μM) and further supplemented with SAG (final concentration 30 nM), Purmorphamine (manufactured by Wako, final concentration 0.2 μM), or human recombinant Shh (manufactured by R&D, Recombinant N-Terminus, final concentration 50 ng/ml) as a Shh signal transduction pathway activating substance was used (FIG. 8). On day 2 after the start of suspension culturing, a cell aggregates were formed. […]

[2] = system: human iPS cells (DSPC-3 strain); assay: as above; conditions: Example 8; StemFit; SAG 300 nM day 0; day 22
Description: as §1, with “at 1.2×10^4” for “at 1.0×10^4”, “SAG” for “SAG (final concentration 30 nM), Purmorphamine (manufactured by Wako, final concentration 0.2 μM), or human recombinant Shh (manufactured by R&D, Recombinant N-Terminus, final concentration 50 ng/ml)”, “as an exogenous” for “as a”, “substance (final concentration 300 nM), or not supplemented with SAG (final concentration 0 nM)” for “substance”, “(FIG. 10).” for “(FIG. 8).”, “culturing,” for “culturing, a”

[3] = system: human iPS cells (DSPC-3 strain); assay: Immunostaining of aggregate frozen sections for retinal tissue markers Chx10 and Rx; conditions: Example 8; SAG 300 nM day 0; BMP4 1.5 nM day 3; day 22
Excerpt: Cell aggregates on day 22 after the start of suspension culturing were fixed with 4% para-formaldehyde to produce frozen sections. These frozen sections were immunostained for Chx10 (anti-Chx10 antibody, Exalpha, sheep), which is one of the retinal tissue markers, or Rx (anti-Rx antibody, manufactured by Takara, guinea pig), which is one of the retinal tissue markers.

CNC1CCC(N(Cc2cccc(-c3ccncc3)c2)C(=O)c2sc3ccccc3c2Cl)CC1 (centres unmarked) [SAG]
neuroepithelium formation (bright field) ([1]; Example 3, Essential 8, SAG 300 μM day 0, with or without BMP4 1.5 nM day 6): neuroepithelium was formed | neuroepithelium formation (bright field) ([1]; Example 6, StemFit, SAG 30 nM, Purmorphamine 0.2 μM or human recombinant Shh 50 ng/ml day 0, BMP4 1.5 nM day 3): neuroepithelium was formed | aggregate shape and neuroepithelium formation (bright field) [2]: cell aggregates were maintained, and neuroepithelium was formed | proportion of Chx10-positive cells in the total cells [3]: about 10% | proportion of Rx-positive cells in the total cells [3]: about 10%
